Counter-ions that a name gives are not always drawn. Like-named read-outs stand apart in the source and are kept apart here.
Target: T1, recombinant human SYK360-635 (Homo sapiens, UniProt P43405)
T1 construct: made in house
Assay: Determination of IC50 of Spleen Tyrosine Kinase (SYK) inhibition, 33P ATP filtration assay
Type: biochemical
Settings: SYK aa 360-635 0.5 nM, ATP 20 μM, peptide 5 μM, 0.1% BSA

[1] = read-out: SYK_ENZYME_FILTRATION/v1, BSA

Experimental: All concentrations were final in the reaction mixture and all incubations were carried at room temperature. […] SYK Assay Information Determination of IC50 of Spleen Tyrosine Kinase (SYK) Inhibition:
SYK kinase assay is a standard kinase assay adapted to a 96 well plate format. This assay is performed in 96-well format for IC50 determination with 8 samples which represented 10 half log dilutions and a 40 μL reaction volume. The assay measures the incorporation of radiolabeled ^33P γATP into an N-terminally biotinylated peptide substrate, derived from naturally occurring phosphoacceptor consensus sequence (Biotin-11aa DY*E). […] Experimental Method:
DMSO and the mixture was incubated for 10 min at RT.
The kinase reaction was initiated by the addition of 10 μL 4× substrate cocktail containing the DYE peptide substrate [0 or 5 μM], ATP [20 μM] and ^33PγATP [2 μCi/r×n]. After incubation at 30° C. for 15 min, the reaction was terminated by the transfer of 25 μL pf the reaction sample to a 96 well 0.65 μm Millipore MADVNOB membrane/plate containing 200 μL 5 mM EDTA and 20% Streptavidine coated beads in PBS.
The unbound radionucleotides were washed under vacuum with 3×250 μL 2M NaCl; 2×250 μL 2M NaCl+1% phosphoric acid; 1×250 μL H2O. After the last wash membrane/plates were transferred to an adaptor plate, heat dried for 15 min at 60° C., and 50 μL scintillation cocktail was added to each well and 4 h later the amount of radioactivity was counted in a top counter.

Structure (SMILES) | IC50 [1] | IC50 (SYK_ENZYME_FILTRATION/v1, BSA)
Cn1nc(-c2cnc3[nH]cc(C(=O)NC(C)(C)C)c3n2)c2cc(OCCCC(C)(C)N)ccc21 [Example I-449, 2-(5-(4-Amino-4-methylpentyloxy)-1-methyl-1H-indazol-3-yl)-N-tert-butyl-5H-pyrrolo[3,2-b]pyrazine-7-carboxamide 2,2,2-trifluoroacetate] | 46.9 nM | 
Cn1nc(-c2cnc3[nH]cc(C(=O)Nc4cccnc4)c3n2)c2ccc(Cl)cc21 [Example I-405, 2-(6-Chloro-1-methyl-1H-indazol-3-yl)-5H-pyrrolo[2,3-b]pyrazine-7-carboxylic acid pyridin-3-ylamide] | 186 nM | 
Cn1nc(-c2cnc3[nH]cc(C(=O)NC(C)(C)C(=O)O)c3n2)c2ccc(F)cc21 [Example I-382, 2-{[2-(6-Fluoro-1-methyl-1H-indazol-3-yl)-5H-pyrrolo[2,3-b]pyrazine-7-carbonyl]-amino}-2-methyl-propionic acid] | 945 nM | 
CC(C)NC(=O)c1c[nH]c2ncc(-c3nn(C)c4ccc(C5CC5)cc34)nc12 [Example I-195, 2-(5-Cyclopropyl-1-methyl-1H-indazol-3-yl)-5H-pyrrolo[2,3-b]pyrazine-7-carboxylic acid isopropylamide] | 12 nM | 
CC(C)NC(=O)c1c[nH]c2ncc(-c3nn(C)c4ccc(O)cc34)nc12 [Example I-65, 2-(5-Hydroxy-1-methyl-1H-indazol-3-yl)-5H-pyrrolo[2,3-b]pyrazine-7-carboxylic acid isopropylamide] | 5.8 nM | 
CC(C)(C)NC(=O)c1c[nH]c2ncc(-n3ncc4ccc(C(F)(F)F)cc43)nc12 [Example I-330, 2-(6-Trifluoromethyl-indazol-1-yl)-5H-pyrrolo[2,3-b]pyrazine-7-carboxylic acid tert-butylamide] | 988 nM | 
Cn1nc(-c2cnc3[nH]cc(C(=O)Nc4ccccc4)c3n2)c2ccc(Cl)cc21 [Example I-396, 2-(6-Chloro-1-methyl-1H-indazol-3-yl)-5H-pyrrolo[2,3-b]pyrazine-7-carboxylic acid phenylamide] | > 10000 nM | 
Cn1nc(-c2cnc3[nH]cc(C(=O)N[C@H]4CC[C@@H](N)CC4)c3n2)c2cc(OC(F)F)ccc21 [Example I-402, 2-(5-Difluoromethoxy-1-methyl-1H-indazol-3-yl)-5H-pyrrolo[2,3-b]pyrazine-7-carboxylic acid (cis-4-amino-cyclohexyl)-amide] | 101 nM | 
CC(C)(C)NC(=O)c1c[nH]c2ncc(-c3nn(CCCC(=O)O)c4ccc(OC(F)F)cc34)nc12 [Example I-262, 4-[3-(7-tert-Butylcarbamoyl-5H-pyrrolo[2,3-b]pyrazin-2-yl)-5-difluoromethoxy-indazol-1-yl]-butyric acid] | 2.75 nM | 
Cn1nc(-c2cnc3[nH]cc(C(=O)NC4(C)COC4)c3n2)c2ccc(F)cc21 [Example I-386, 2-(6-Fluoro-1-methyl-1H-indazol-3-yl)-5H-pyrrolo[2,3-b]pyrazine-7-carboxylic acid (3-methyl-oxetan-3-yl)-amide] | 104 nM | 
Cn1nc(-c2cnc3[nH]cc(C(=O)NC4(C(C)(C)O)CCC4)c3n2)c2ccc(F)cc21 [Example I-255, 2-(6-Fluoro-1-methyl-1H-indazol-3-yl)-5H-pyrrolo[2,3-b]pyrazine-7-carboxylic acid [1-(1-hydroxy-1-methyl-ethyl)-cyclobutyl]-amide] | 607 nM | 
CC(C)(C)NC(=O)c1c[nH]c2ncc(-n3ncc4cc(Cl)ccc43)nc12 [Example I-324, 2-(5-Chloro-indazol-1-yl)-5H-pyrrolo[2,3-b]pyrazine-7-carboxylic acid tert-butylamide] | 108 nM | 
COc1nn(-c2cnc3[nH]cc(C(=O)NC(C)(C)CO)c3n2)c2ccccc12 [Example I-344, 2-(3-Methoxy-indazol-1-yl)-5H-pyrrolo[2,3-b]pyrazine-7-carboxylic acid (2-hydroxy-1,1-dimethyl-ethyl)-amide] | 8.88 nM | 
CC(C)(CO)NC(=O)c1c[nH]c2ncc(-n3nc(C4CCNCC4)c4ccccc43)nc12 [Example I-347, 2-(3-Piperidin-4-yl-indazol-1-yl)-5H-pyrrolo[2,3-b]pyrazine-7-carboxylic acid (2-hydroxy-1,1-dimethyl-ethyl)-amide] |  | 14.3 nM
CC(C)(C)NC(=O)c1c[nH]c2ncc(-c3cccc4cn[nH]c34)nc12 [Example I-421, 2-(1H-Indazol-7-yl)-5H-pyrrolo[2,3-b]pyrazine-7-carboxylic acid tert-butylamide] | 163 nM | 
C[C@@H](NC(=O)c1c[nH]c2ncc(-c3cn(C)c4cc(Cl)ccc34)nc12)C(=O)N1CC(C#N)C1 [Example I-29, 2-(6-Chloro-1-methyl-1H-indol-3-yl)-5H-pyrrolo[2,3-b]pyrazine-7-carboxylic acid [(R)-2-(3-cyano-azetidin-1-yl)-1-methyl-2-oxo-ethyl]-amide] | 4.1 nM | 

Structure (SMILES) | IC50 [1] | IC50 (SYK_ENZYME_FILTRATION/v1, BSA)
Cn1nc(-c2cnc3[nH]cc(C(=O)N[C@@H]4CCC[C@@H](N)C4)c3n2)c2ccc(Cl)cc21 (relative stereo) [Example I-276, 2-(6-Chloro-1-methyl-1H-indazol-3-yl)-5H-pyrrolo[2,3-b]pyrazine-7-carboxylic acid (trans-3-amino-cyclohexyl)-amide] | 16.4 nM | 
CCc1ccc2c(-c3cnc4[nH]cc(C(=O)NC(C)(C)C)c4n3)nn(C)c2c1 [Example I-367, 2-(6-Ethyl-1-methyl-1H-indazol-3-yl)-5H-pyrrolo[2,3-b]pyrazine-7-carboxylic acid tert-butylamide] | 4.78 nM | 
Cn1nc(-c2cnc3[nH]cc(C(=O)NC(C)(C)CCCN)c3n2)c2ccc(F)cc21 [Example I-408, 2-(6-Fluoro-1-methyl-1H-indazol-3-yl)-5H-pyrrolo[2,3-b]pyrazine-7-carboxylic acid (4-amino-1,1-dimethyl-butyl)-amide] | 52.7 nM | 
CC(C)(C)NC(=O)c1c[nH]c2ncc(-c3nn(C4CCNC4)c4cc(F)ccc34)nc12 (centres unmarked) [Example I-258, 2-(6-Fluoro-1-pyrrolidin-3-yl-1H-indazol-3-yl)-5H-pyrrolo[2,3-b]pyrazine-7-carboxylic acid tert-butylamide] | 24.6 nM | 
Cn1nc(-c2cnc3[nH]cc(C(=O)NC4(C)CCCCC4)c3n2)c2ccc(F)cc21 [Example I-392, 2-(6-Fluoro-1-methyl-1H-indazol-3-yl)-5H-pyrrolo[2,3-b]pyrazine-7-carboxylic acid (1-methyl-cyclohexyl)-amide] | 10.2 nM | 
Cc1ccc2c(-c3cnc4[nH]cc(C(=O)NC(C)(C)CN(C)C)c4n3)nn(C)c2c1 [Example I-430, 2-(1,6-Dimethyl-1H-indazol-3-yl)-5H-pyrrolo[2,3-b]pyrazine-7-carboxylic acid (2-dimethylamino-1,1-dimethyl-ethyl)-amide] | 1360 nM | 
CC(=O)N(C)CCCn1nc(-c2cnc3[nH]cc(C(=O)NC(C)(C)C)c3n2)c2cc(OC(F)F)ccc21 [Example I-346, 2-{1-[3-(Acetyl-methyl-amino)-propyl]-5-difluoromethoxy-1H-indazol-3-yl}-5H-pyrrolo[2,3-b]pyrazine-7-carboxylic acid tert-butylamide] | 5.55 nM | 
CC(C)NC(=O)c1c[nH]c2ncc(-c3nn(C)c4ccc(C(C)O)cc34)nc12 (centres unmarked) [Example I-269, 2-[5-(1-Hydroxy-ethyl)-1-methyl-1H-indazol-3-yl]-5H-pyrrolo[2,3-b]pyrazine-7-carboxylic acid isopropylamide] | 22.1 nM | 
COC[C@H](C)NC(=O)c1c[nH]c2ncc(-c3nn(C)c4ccc(C5CC5)cc34)nc12 [Example I-194, 2-(5-Cyclopropyl-1-methyl-1H-indazol-3-yl)-5H-pyrrolo[2,3-b]pyrazine-7-carboxylic acid ((S)-2-methoxy-1-methyl-ethyl)-amide] | 11.9 nM | 
Cn1nc(-c2cnc3[nH]cc(C(=O)NC4(C)CCNC4)c3n2)c2ccc(F)cc21 (centres unmarked) [Example I-406, 2-(6-Fluoro-1-methyl-1H-indazol-3-yl)-5H-pyrrolo[2,3-b]pyrazine-7-carboxylic acid (3-methyl-pyrrolidin-3-yl)-amide] | 87.3 nM | 
C[C@@H](NC(=O)c1c[nH]c2ncc(-c3nn(C)c4cc(C#N)ccc34)nc12)C(=O)N1CC(C#N)C1 [Example I-22, 2-(6-Cyano-1-methyl-1H-indazol-3-yl)-5H-pyrrolo[2,3-b]pyrazine-7-carboxylic acid [(R)-2-(3-cyano-azetidin-1-yl)-1-methyl-2-oxo-ethyl]-amide] | 45.7 nM | 
Cn1nc(-c2cnc3[nH]cc(C(=O)N[C@]4(C)CC[C@H](N)CC4)c3n2)c2ccc(F)cc21 [Example I-417, 2-(6-Fluoro-1-methyl-1H-indazol-3-yl)-5H-pyrrolo[2,3-b]pyrazine-7-carboxylic acid (cis-4-amino-1-methyl-cyclohexyl)-amide] | 787 nM | 
CC(C)(C)NC(=O)c1c[nH]c2ncc(-n3ncc4cc(F)ccc43)nc12 [Example I-326, 2-(5-Fluoro-indazol-1-yl)-5H-pyrrolo[2,3-b]pyrazine-7-carboxylic acid tert-butylamide] | 43.4 nM | 
Cn1nc(-c2cnc3[nH]cc(C(=O)NC(C)(C)C)c3n2)c2ccc(C(F)(F)F)cc21 [Example I-420, 2-(1-Methyl-6-trifluoromethyl-1H-indazol-3-yl)-5H-pyrrolo[2,3-b]pyrazine-7 carboxylic acid tert-butylamide] | 33.5 nM | 
Cn1nc(-c2cnc3[nH]cc(C(=O)NC(CO)CO)c3n2)c2ccc(Cl)cc21 [Example I-316, 2-(6-Chloro-1-methyl-1H-indazol-3-yl)-5H-pyrrolo[2,3-b]pyrazine-7-carboxylic acid (2-hydroxy-1-hydroxymethyl-ethyl)-amide] | 14.6 nM | 
CC(C)(N)CCCn1nc(-c2cnc3[nH]cc(C(=O)NC(C)(C)C)c3n2)c2cc(OC(F)F)ccc21 [Example I-454, 2-(1-(4-Amino-4-methylpentyl)-5-(difluoromethoxy)-1H-indazol-3-yl)-N-tert-butyl-5H-pyrrolo[3,2-b]pyrazine-7-carboxamide trifluoroacetate] | 7.6 nM | 
